According to patent US9776972B2, “Pyrazole derivatives as arginine methyltransferase inhibitors and uses thereof” (priority 2013, dated 2017):
Read-outs that look alike come from different tables or passages of the source.

Experiments:
human PRMT1 = biological target: T1, human PRMT1 (Homo sapiens, UniProt Q99873); assay: PRMT1 Biochemical Assay (3H-SAM Flashplate, peptide substrate)
T1 construct: GST-tagged PRMT1; made in house; host or cells: High Five insect cells (baculovirus)
Summary of the method: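 GST-tagged PRMT1 from baculovirus-infected cells, preincubated with compounds 30 min at room temperature in 20 mM Bicine pH 7.6, 1 mM TCEP, 0.005% BSG, 0.002% Tween 20. Reaction started with ³H-SAM plus biotinylated peptide, stopped with 300 µM cold SAM.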

[1] = tested on: mono-methyl arginine in RKO cells; assay: RKO Methylation Assay, In Cell Western (ICW) for mono-methyl arginine and DNA content; assay type: cell-based; settings: Homo sapiens, RKO, 72 h
Summary of the method: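 RKO cells treated with compound for 72 hours at 37 °C, then methanol-fixed and stained overnight at 4 °C with anti-mono-methyl arginine antibody, plus DRAQ5 for DNA. Signal ratio from 700 and 800 nm infrared scans normalized to DMSO (minimum) and 20 μM reference compound (maximum); EC30 from triplicate curves.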

[2] = single experiment or average of multiple experiments
[3] = RKO cells, 72 hours, mono-methyl arginine, percent activation, class symbols, read-out: EC30 (In Cell Western data)
[4] = RKO cells, 72 hours, mono-methyl arginine, percent activation, single experiment or average of multiple experiments, read-out: EC30 (In Cell Western data, Numerical)

T1 sequence (Q99873 with tags, fused parts or gaps): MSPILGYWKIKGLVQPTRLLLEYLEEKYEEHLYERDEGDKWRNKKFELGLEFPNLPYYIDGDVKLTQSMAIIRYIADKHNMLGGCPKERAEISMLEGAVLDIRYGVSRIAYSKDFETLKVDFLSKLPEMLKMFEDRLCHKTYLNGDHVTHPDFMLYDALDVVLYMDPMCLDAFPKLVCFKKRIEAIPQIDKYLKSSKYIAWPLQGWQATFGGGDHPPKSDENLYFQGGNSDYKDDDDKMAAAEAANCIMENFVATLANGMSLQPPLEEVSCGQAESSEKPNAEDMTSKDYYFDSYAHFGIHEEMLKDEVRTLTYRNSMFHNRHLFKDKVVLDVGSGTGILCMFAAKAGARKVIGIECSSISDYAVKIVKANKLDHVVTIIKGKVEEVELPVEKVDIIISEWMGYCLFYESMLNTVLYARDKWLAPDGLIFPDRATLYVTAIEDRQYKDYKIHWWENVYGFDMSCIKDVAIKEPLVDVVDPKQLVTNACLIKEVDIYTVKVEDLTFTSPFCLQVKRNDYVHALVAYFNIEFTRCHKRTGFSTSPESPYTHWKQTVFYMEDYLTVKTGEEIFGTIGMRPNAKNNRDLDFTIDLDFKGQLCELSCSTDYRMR

IC50 (human PRMT1)	IC50 (human PRMT1; [2])	SMILES	EC30 [1, 3]	EC30 [1, 4]	EC30 ([1]; read-out: EC30 (In Cell Western data))	EC30 ([1]; read-out: EC30 (In Cell Western data, Numerical, μM))
< 0.1 µM	0.00665 µM	CNCCN(C)Cc1c[nH]nc1-c1ccc(OC2COC2)cc1 [Compound 283]	< 3 µM	0.379 µM	–	–
< 0.1 µM	0.0133 µM	CNCCN(C)Cc1c[nH]nc1-c1ccc(OCC2CCOCC2)cc1 [Compound 284]	< 3 µM	0.856 µM	–	–
< 0.1 µM	0.0148 µM	CNCCN(C)Cc1c[nH]nc1-c1ccc(OCC2CCOC2)cc1 (centres unmarked) [Compound 285]	< 3 µM	0.62 µM	–	–
< 0.1 µM	0.00897 µM	CNCCN(C)Cc1c[nH]nc1-c1ccc(OCC2CC2)cc1 [Compound 288]	< 3 µM	0.076 µM	–	–
< 0.1 µM	0.0211 µM	CNCCN(C)Cc1c[nH]nc1-c1ccc(OCCOC)cc1 [Compound 289]	< 3 µM	0.419 µM	–	–
< 0.1 µM	0.00828 µM	CCC(CC)Oc1ccc(-c2n[nH]cc2CN(C)CCNC)cc1 [Compound 290]	< 3 µM	0.021 µM	–	–
< 0.1 µM	0.0273 µM	CNCCN(C)Cc1c[nH]nc1-c1ccc(OC2CCOCC2)c(Cl)c1 [Compound 292]	< 3 µM	0.098 µM	–	–
< 0.1 µM	0.0135 µM	CNCCN(C)Cc1c[nH]nc1-c1ccc(OC2CC2)cc1 [Compound 293]	< 3 µM	0.336 µM	–	–
< 0.1 µM	0.0287 µM	CNCCN(C)Cc1c[nH]nc1-c1ccc(NC(C)C)cc1 [Compound 295]	< 3 µM	0.116 µM	–	–
< 0.1 µM	0.0288 µM	CNCCN(C)Cc1c[nH]nc1-c1ccc(NCC(C)C)cc1 [Compound 296]	< 3 µM	0.478 µM	–	–
< 0.1 µM	0.00337 µM	CNCCN(C)Cc1c[nH]nc1-c1ccc(Oc2ccccc2)c(F)c1 [Compound 297]	< 3 µM	0.08 µM	–	–
< 0.1 µM	0.00787 µM	CNCCN(C)Cc1c[nH]nc1-c1ccc(OCC2CC2)c(F)c1 [Compound 298]	< 3 µM	0.104 µM	–	–
< 0.1 µM	0.0198 µM	CNCCN(C)Cc1c[nH]nc1-c1ccc(OC2CCC(O)CC2)cc1 (centres unmarked) [Compound 299]	< 3 µM	0.877 µM	–	–
< 0.1 µM	0.0279 µM	CNCCN(C)Cc1c[nH]nc1-c1ccc(N(C)C(C)C)cc1 [Compound 300]	< 3 µM	0.611 µM	–	–
< 0.1 µM	0.00643 µM	CNCCN(C)Cc1c[nH]nc1-c1ccc(OC2CC2)c(F)c1 [Compound 301]	< 3 µM	0.128 µM	–	–
< 0.1 µM	0.0334 µM	CNCCN(C)Cc1c[nH]nc1-c1ccc(Oc2ncccn2)cc1 [Compound 302]	< 3 µM	0.976 µM	–	–
< 0.1 µM	0.0279 µM	CNCCN(C)Cc1c[nH]nc1-c1ccc(Oc2cncnc2)cc1 [Compound 303]	< 3 µM	0.712 µM	–	–
< 0.1 µM	0.00659 µM	CNCCN(C)Cc1c[nH]nc1-c1ccc(OC2CCC2)cc1 [Compound 304]	< 3 µM	0.155 µM	–	–
< 0.1 µM	0.00636 µM	CNCCN(C)Cc1c[nH]nc1-c1ccc(OC2CCC2)c(F)c1 [Compound 305]	< 3 µM	0.193 µM	–	–
< 0.1 µM	0.0071 µM	CNCCN(C)Cc1c[nH]nc1-c1ccc(OCC(C)C)cc1 [Compound 306]	< 3 µM	0.1 µM	–	–
< 0.1 µM	0.00589 µM	CNCCN(C)Cc1c[nH]nc1-c1ccc(OCC2CCC2)cc1 [Compound 307]	< 3 µM	0.109 µM	–	–
< 0.1 µM	0.00707 µM	CC[C@@H](C)Oc1ccc(-c2n[nH]cc2CN(C)CCNC)cc1 [Compound 308]	< 3 µM	0.065 µM	–	–
< 0.1 µM	0.0067 µM	CC[C@H](C)Oc1ccc(-c2n[nH]cc2CN(C)CCNC)cc1 [Compound 309]	< 3 µM	0.024 µM	–	–
< 0.1 µM	0.0145 µM	CCC(COC)Oc1ccc(-c2n[nH]cc2CN(C)CCNC)cc1 (centres unmarked) [Compound 310]	< 3 µM	0.032 µM	–	–
< 0.1 µM	0.0216 µM	CNCCN(C)Cc1c[nH]nc1-c1ccc(OC(COC)C(C)C)cc1 (centres unmarked) [Compound 311]	< 3 µM	0.227 µM	–	–
< 0.1 µM	0.0116 µM	CNCCN(C)Cc1c[nH]nc1-c1ccc(Oc2ccncn2)cc1 [Compound 312]	< 3 µM	0.824 µM	–	–
< 0.1 µM	0.0349 µM	CNCCN(C)Cc1c[nH]nc1-c1ccc(C(C)(C)COC)cc1 [Compound 313]	< 3 µM	0.894 µM	–	–
< 0.1 µM	0.0182 µM	CNCCN(C)Cc1c[nH]nc1-c1ccc(OC(COC)CC(C)C)cc1 (centres unmarked) [Compound 314]	< 3 µM	0.51 µM	–	–
< 0.1 µM	0.0235 µM	CNCCN(C)Cc1c[nH]nc1-c1ccc(OC2CC(OC)C2)cc1 (centres unmarked) [Compound 315]	< 3 µM	0.843 µM	–	–
< 0.1 µM	0.0175 µM	CNCCN(C)Cc1c[nH]nc1-c1ccc(OC(COC)COC)cc1 [Compound 316]	< 3 µM	0.063 µM	–	–

SMILES	IC50 (human PRMT1)	IC50 (human PRMT1; [2])	EC30 [1, 3]	EC30 [1, 4]	EC30 ([1]; read-out: EC30 (In Cell Western data))	EC30 ([1]; read-out: EC30 (In Cell Western data, Numerical, μM))
CNCCN(C)Cc1c[nH]nc1-c1ccc(OC(CO)C(C)C)cc1 (centres unmarked) [Compound 286]	< 0.1 µM	0.0265 µM	< 3 µM	0.812 µM	–	–
CNCCN(C)Cc1c[nH]nc1-c1ccc(OC2CCOCC2)c(F)c1 [Compound 291]	< 0.1 µM	0.0156 µM	–	–	< 3 µM	0.154 µM
